Measured values from ChEMBL document CHEMBL1201862, “PubChem BioAssay data set” (2004).
Where a name gives a salt, the structure may show the parent alone. Active and inactive are the calls of the source.

Tests used:
[1] = A2780 ovarian cancer cell cytotoxicity, dose response, cytotoxicity control, plate reader, dry powder samples (AID 743046); assay type: functional, cell-based
Paired box protein Pax-8 = Paired box protein Pax-8 (Homo sapiens, UniProt Q06710); assay: inhibitors of PAX8-driven TPO luciferase reporter, dose response, RMG-I cells, cherry-pick (AID 687027); assay type: functional, cell-based;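 also: luciferase reporter driven by Pax8 target thyroperoxidase promoter measured by SteadyGlo luminescence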
Chain of Paired box protein Pax-8 (Q06710 whole entry): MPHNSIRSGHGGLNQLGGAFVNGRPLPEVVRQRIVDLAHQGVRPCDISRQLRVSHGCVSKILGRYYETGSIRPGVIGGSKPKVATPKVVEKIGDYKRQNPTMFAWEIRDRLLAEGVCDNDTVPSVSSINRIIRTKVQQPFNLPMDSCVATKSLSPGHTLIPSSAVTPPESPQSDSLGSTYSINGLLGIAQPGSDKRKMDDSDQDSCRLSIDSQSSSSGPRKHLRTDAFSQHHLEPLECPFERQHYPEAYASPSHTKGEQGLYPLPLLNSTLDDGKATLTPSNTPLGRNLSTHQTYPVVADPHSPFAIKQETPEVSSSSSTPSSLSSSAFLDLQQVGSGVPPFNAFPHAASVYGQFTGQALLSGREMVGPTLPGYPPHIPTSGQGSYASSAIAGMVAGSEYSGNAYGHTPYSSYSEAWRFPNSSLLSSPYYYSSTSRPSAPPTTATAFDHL

[2] = inhibitors of non-replicating M. tuberculosis, dose response, luciferase, dry powder (AID 651620); assay type: functional; conditions: Mycobacterium tuberculosis
[3] = inhibitors of non-replicating M. tuberculosis, dose response, luciferase, dry powder (AID 651619); assay type: functional; conditions: Mycobacterium tuberculosis
[4] = CTGF mRNA reduction under YAP1 overexpression, dose response, mechanism study for YAP1 pathway inhibitor project, DLD1 cells, RT-qPCR, cherry-pick (AID 1053127); assay type: functional, cell-based; conditions: DLD-1
[5] = A375 melanoma cell viability loss, dose response, counter-screen for MITF inhibitor project, CellTiter-Glo luminescence, dry powder, set 4 (AID 624364); assay type: functional, cell-based; conditions: A-375;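 also: A375 melanoma cells are MITF independent so this is a counter screen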
[6] = A375 melanoma cell cytotoxicity, dose response, counter-screen for MITF inhibitor project, CellTiter-Glo luminescence, dry powder, set 2 (AID 624489); assay type: functional, cell-based; conditions: A-375;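 also: actives are compounds lowering A375 viability meaning general cytotoxicity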
[7] = cytotoxicity toward HT-29 cells – cell-based, CellTiter-Glo luminescence, IC50, dose response (AID 1117330); assay type: functional
[8] = cytotoxicity toward HCT116 cells – cell-based, CellTiter-Glo luminescence, IC50, dose response (AID 1117332); assay type: functional; conditions: HCT-116
[9] = SNU-C1 cell viability reduction, dose response, CellTiter-Glo luminescence (AID 1117323); assay type: functional, cell-based
[10] = cytotoxicity toward Colo320 cells – cell-based, CellTiter-Glo luminescence, IC50, dose response (AID 1117334); assay type: functional; conditions: COLO 320
[11] = Concentration-dependent survival of SW480 colon cancer line, luminescence detection with CellTiter-Glo, half-maximal inhibitory concentration (AID 1117338); assay type: functional
[12] = CellTiter-Glo luminescent dose response of DLD-1 viability loss (AID 1117352); assay type: functional
[13] = RKO cell viability reduction, dose response, CellTiter-Glo luminescence (AID 1117322); assay type: functional
[14] = HeLa 4N DNA content increase, dose response, cell-based, IC50 (AID 1117351); assay type: functional
[15] = HeLa 2N DNA content increase, dose response, cell-based, IC50 (AID 1117349); assay type: functional
[16] = HCT116 cell viability decrease, GSK3B pretreatment – CellTiter-Glo, IC50, dose response (AID 1117339); assay type: functional; conditions: HCT-116

Row | Compound | IC50 [8] | IC50 [9] | IC50 [10] | IC50 [11] | IC50 [12] | IC50 [13] | further results
1 | CC(C)CC#Cc1ccc([C@@H]2[C@@H](CO)N3CCCCN(S(=O)(=O)c4ccc(F)cc4)C[C@H]23)cc1 |  |  |  |  |  |  | AC50 [1]: 52.3 µM (active); AC50 (Paired box protein Pax-8): 12.4 µM (active)
2 | Brc1cccc(-c2nnc(SCc3ccccn3)o2)c1 |  |  |  |  |  |  | IC90 [2]: 4 µM (active); IC90 [3]: 4 µM (active)
3 | O=C(Cc1ccncc1)N1CCCCN2[C@H](CO)[C@@H](c3ccc(C#Cc4ccccc4F)cc3)[C@H]2C1 |  |  |  |  |  |  | AC50 [4]: 15.1 µM (active)
4 | CC(C)(C)[S@@+]([O-])N1Cc2cc(C(=O)NCC(F)(F)F)nc(-c3cccc(-c4cccc(F)c4)c3)c2[C@H]1CCO |  |  |  |  |  |  | AC50 [4]: > 26 µM (inactive)
5 | COc1ccc(C2=C(N)C(=O)c3ccccc3C2=O)cc1 |  |  |  |  |  |  | AC50 [5]: > 70 µM (inactive); AC50 [6]: > 70 µM (inactive)
6 | O=c1sc2ccccc2c(O)c1C1CC(c2ccc(-c3ccc(Br)cc3)cc2)Cc2ccccc21 (centres undefined) | 0.485 µM (active) | 0.252 µM (active) | 0.735 µM (active) | 0.187 µM (active) | 0.239 µM (active) | 0.538 µM (active) | IC50 [7]: 0.436 µM (active)
7 | COc1ccc(C2=C(NC(C)=O)C(=O)c3ccccc3C2=O)cc1 |  |  |  |  |  |  | AC50 [5]: 13.4 µM (active); AC50 [6]: 8.33 µM (active)
8 | COc1cc(NC(C)CCCN)c2ncccc2c1 (centres undefined) [PRIMAQUINE] | 1.88 µM (active) | > 20 µM (inactive) | > 20 µM (inactive) | > 20 µM (inactive) | > 20 µM (inactive) | > 20 µM (inactive) | IC50 [14]: > 10 µM (inactive); IC50 [15]: > 10 µM (inactive); IC50 [16]: > 20 µM (inactive)
9 | O=C(CCCN1CCC(O)(c2cccc(C(F)(F)F)c2)CC1)c1ccc(F)cc1 [TRIFLUPERIDOL HYDROCHLORIDE] | > 20 µM (inactive) | > 20 µM (inactive) | > 20 µM (inactive) | > 20 µM (inactive) | > 20 µM (inactive) | > 20 µM (inactive) | IC50 [7]: > 20 µM (inactive); IC50 [16]: > 20 µM (inactive)
